Patent US5663197A, “2-(1-hydroxyethyl)-5-hydroxynaphtho[2,3-b]furan-4,9-dione and antitumor agents comprising this compound” (priority 1992, dated 1997)
Values after ≈ are worked out from the molar mass of the structure shown.

What was measured:
Format in all cases: cell-based
[1] = test system: Human lung adenocarcinoma VMRC-LCD cells; test: In vitro antitumor test (trypan blue exclusion viable cell count), VMRC-LCD; conditions: 72 h, three days exposure, read-out: LD50 (IC50), 50% growth-inhibitory dose
Procedure: (§1) An appropriate amount of NFD was dissolved in DMSO to give a 1.0 mg/ml stock solution, which was diluted as necessary before use.
(§2) The following cells in the late logarithmic phase were harvested after treatment with trypsin (containing 0.25% trypsin and 0.02% EDTA; 37° C., 3 min) and used in the test: human lung adenocarcinoma cell lines A-549, VMRC-LCD and SK-LU-1, human lung squamous cell carcinoma Calu-1 cells, human colon adenocarcinoma WiDr cells, human prostate cancer LNCaP cells, human vaginal squamous cell carcinoma A-431 cells, human cervical carcinoma HeLa cells, human cholangiocarcinoma HuCC-T1 cells, mouse skin cancer melanoma B16 (M4) cells, human pancreatic carcinoma ASPC-1 cells, human neuroblastoma IMR-132 cells, human lung small cell carcinoma SCCH-194 cells, human uninary bladder carcinoma T24 cells, human renal cell carcinoma […] cells, human gastric cancer NUGC-2 cells, human thyroid carcinoma 8305C cells, human hepatoma HUH-7 cells, human ovarian carcinoma TYK-nu cells and human chorio carcinoma BeWo cells. […] These cells were plated onto a 96-well microplate at a density of 5-10×10^3 cells/cm^2 using DMEM or RPMI-1640 medium containing 10% fetal bovine serum and cultured for 24 hours in a conventional manner, after which a pre-determined amount of NFD dissolved in DMSO was added to each well. […]

[2] = test system: Human lung adenocarcinoma SK-LU-1 cells; test: In vitro antitumor test (trypan blue exclusion viable cell count), SK-LU-1; conditions: 72 h, three days exposure, read-out: LD50 (IC50), 50% growth-inhibitory dose
Procedure: as §1, §2

[3] = test system: Human colon adenocarcinoma WiDr cells; test: In vitro antitumor test (trypan blue exclusion viable cell count), WiDr
Procedure: as §1
as §2, with “cells. Suspension cultures of human breast cancer MRK-nu-1 cells, human malignant B-cell lymphoma cells and human chronic myelogenous leukemia K562 cells were used to harvest the cells to be used in the test.” for “cells.”, “well. Cultivation was continued, and the number of viable cells was counted after 24, 48 and 72 hours.” for “well.”
Growth inhibitory action and lethal activity of NFD on various types of malignant tumor cells and normal human cells listed above were evaluated by counting the number of viable cells in each well of the 96-well microplate. […]

[4] = test system: Mouse melanoma B16 (M4) cells; test: In vitro antitumor test (trypan blue exclusion viable cell count), B16 (M4)
Procedure: as §1, §2

[5] = test system: Human malignant B-cell lymphoma cells; test: In vitro antitumor test (trypan blue exclusion viable cell count), malignant B-cell lymphoma; conditions: 72 h, three days exposure, read-out: LD50 (IC50), 50% growth-inhibitory dose
[6] = test system: Human neuroblastoma IMR-132 cells; test: In vitro antitumor test (trypan blue exclusion viable cell count), IMR-132
Procedure: as §1, §2

[7] = test system: Normal human tracheal epithelial cells; test: In vitro growth test on normal cells, tracheal epithelial cells
Procedure: as §1, §2

Which IC50 [1] does the source give for CC(O)c1cc2c(o1)C(=O)c1cccc(O)c1C2=O (stereo not drawn) [NFD, 2-(1-hydroxyethyl)-5-hydroxynaphtho[2,3-b]furan-4,9-dione] here?
The IC50 was 0.013 µg/mL (≈ 0.0503 µM).

What about the IC50 [2] of the same compound?
The IC50 was 0.017 µg/mL (≈ 0.0658 µM).

What about the “concentration causing necrosis in almost all tumor cells” value ([3]; FIG. 5) of the same compound?
The value was 44.7 to 55.9 ng/mL.

And the IC50 ([3]; Homo sapiens, 72 h, WiDr, three days exposure, read-out: LD50 (IC50), 50% growth-inhibitory dose)?
Its IC50 is 0.011 µg/mL (≈ 0.0426 µM).

And the IC (almost complete) ([3]; Homo sapiens, WiDr, FIG. 5, read-out: concentration inhibiting growth almost completely)?
Its IC (almost complete) is 0.0224 to 0.0335 µg/mL.

And the IC50 ([4]; 72 h, B16 (M4), three days exposure, read-out: LD50 (IC50), 50% growth-inhibitory dose)?
The IC50 was 0.0067 µg/mL (≈ 0.0259 µM).

And the IC (almost complete) ([4]; FIG. 10, read-out: concentration inhibiting growth almost completely)?
The IC (almost complete) was 0.0112 µg/mL.

And the IC50 [5]?
The IC50 was 0.0056 µg/mL (≈ 0.0217 µM).

And the IC50 ([6]; 72 h, IMR-132, three days exposure, read-out: LD50 (IC50), 50% growth-inhibitory dose)?
Its IC50 is 0.01 µg/mL (≈ 0.0387 µM).

And the IC (almost complete) ([6]; FIG. 14, read-out: concentration inhibiting growth almost completely)?
Its IC (almost complete) is 0.0447 µg/mL.

And the “adverse effects on growth of normal cells” value ([7]; FIG. 25, at concentrations which cause necrosis in tumor cells)?
Its value is “no adverse effects”.

And the IC50 ([7]; Homo sapiens, Epithelial cell, 72 h, normal tracheal epithelial cells, three days exposure, read-out: LD50 (IC50), 50% growth-inhibitory dose)?
Its IC50 is > 0.055 µg/mL.
